Test: Solubility of catalysts in various solvents (maximum amount completely soluble)
Format: physicochemical
Protocol: Solubility of a various kind of catalysts in a various kind of solvents (water, methanol, acetone, acetonitrile, n-hexane, methylene chloride) was evaluated by studying maximum amount of catalysts completely soluble in a various kind of solvents.

Solubility (solvent: acetone): 1000 µg/mL | Solubility (solvent: acetonitrile): insoluble | Solubility (solvent: methanol): 50000 µg/mL | Solubility (solvent: methylene chloride): 10000 µg/mL | Solubility (solvent: n-hexane): insoluble | Solubility (solvent: water): insoluble
Substance: Zinc acetylacetonate [ZnAA]
